# Square brackets hold non-standard residues; d marks the D form. Ends that are not written are not given here. Lys(Me3) = C[N+](C)(C)CCCC[C@H](N)C(=O)O
# Experiments:
# KDM3A = assay: LC-MS demethylation activity assay, KDM3A; type: biochemical, human; settings: 2 μM KDM, 10 μM H1/H3 peptide, 10 μM FAS, 100 μM LAA, 20 μM 2OG, 50 mM HEPES pH 7.5, 2 h, room temperature, T (tri-) initial methylation state
# Procedure, shortened: (§1)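 H1 isoform peptides (10 μM) were incubated 2 h at room temperature with 2 μM recombinant N-terminally His6-tagged catalytic domains in 50 mM HEPES pH 7.5 containing FAS (10 μM), ascorbate (100 μM) and 2OG (20 μM). Reactions were quenched with formic acid (1% final), and demethylation was analysed by LC-MS (Q-TOF).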
# KDM3B = assay: LC-MS demethylation activity assay, KDM3B; type: biochemical, human; settings: 2 μM KDM, 10 μM H1/H3 peptide, 10 μM FAS, 100 μM LAA, 20 μM 2OG, 50 mM HEPES pH 7.5, 2 h, room temperature, T (tri-) initial methylation state
# Procedure, shortened: as §1
# KDM4A = assay: LC-MS demethylation activity assay, KDM4A; type: biochemical, human; settings: 10 μM FAS, 100 μM LAA, 20 μM 2OG, room temperature; for substrate conversion (demethylation) by KDM4A: 2 μM KDM4A, 10 μM peptide, HEPES pH 7.5, 2 h; for KDM4A demethylation activity, T: 2 μM KDM, 10 μM H1/H3 peptide, 50 mM HEPES pH 7.5, 2 h, T (tri-) initial methylation state
# Procedure, shortened: (§2)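 His6-tagged recombinant catalytic domains (2.0 μM) were used: KDM4A M1–L359, KDM4D M1–L359 and KDM3C L2157–L2500 from E. coli, and KDM5D M1–D775 from Sf9. Each acted on 10 μM H1 peptide in 50 mM HEPES pH 7.5 with 10 μM Fe(II), 100 μM ascorbate and 20 μM 2OG for 2 h at room temperature. Reactions were formic acid-quenched and analysed by LC-MS.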
# KDM4D = molecular target: T1, KDM4D (Homo sapiens, UniProt Q6B0I6); assay: LC-MS demethylation activity assay, KDM4D; type: biochemical; settings: room temperature; for substrate conversion (demethylation) by KDM4D / di-methylated product formed by KDM4D / mono-methylated product formed by KDM4D: 2 μM KDM4D, 10 μM peptide; for substrate conversion (demethylation) by KDM4D / KDM4D demethylation activity, T: 10 μM FAS, 100 μM LAA, 20 μM 2OG; for substrate conversion (demethylation) by KDM4D: HEPES pH 7.5, 2 h; for di-methylated product formed by KDM4D / mono-methylated product formed by KDM4D: standard conditions, 2 h; for KDM4D demethylation activity, T: 2 μM KDM, 10 μM H1/H3 peptide, 50 mM HEPES pH 7.5, 2 h, T (tri-) initial methylation state
# T1 construct: KDM4AM1-L359,[38]; KDM4DM1-L359,[39]; KDM4EM1-R336,[30]; His6 (N); made in house; host or cells: Escherichia coli
# T1 sequence (Q6B0I6 1-359): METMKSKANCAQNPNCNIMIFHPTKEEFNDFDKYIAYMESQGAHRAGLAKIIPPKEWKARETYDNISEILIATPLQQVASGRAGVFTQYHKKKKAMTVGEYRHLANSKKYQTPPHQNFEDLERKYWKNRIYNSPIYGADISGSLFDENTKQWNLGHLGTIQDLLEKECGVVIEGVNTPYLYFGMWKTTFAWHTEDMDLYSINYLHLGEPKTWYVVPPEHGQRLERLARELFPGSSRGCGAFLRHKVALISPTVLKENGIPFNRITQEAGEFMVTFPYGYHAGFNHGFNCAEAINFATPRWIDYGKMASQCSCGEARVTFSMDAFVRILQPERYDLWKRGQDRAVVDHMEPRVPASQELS
# Procedure, shortened: as §2
# KDM5D = assay: LC-MS demethylation activity assay, KDM5D; type: biochemical, human; settings: 2 μM KDM, 10 μM H1/H3 peptide, 10 μM FAS, 100 μM LAA, 20 μM 2OG, 50 mM HEPES pH 7.5, 2 h, room temperature, T (tri-) initial methylation state
# Procedure, shortened: as §2
Substance,"KDM3A demethylation activity, T (KDM3A)","KDM3B demethylation activity, T (KDM3B)",substrate conversion (demethylation) by KDM4A (KDM4A),"KDM4A demethylation activity, T (KDM4A)",substrate conversion (demethylation) by KDM4D (KDM4D),di-methylated product formed by KDM4D (KDM4D),mono-methylated product formed by KDM4D (KDM4D),"KDM4D demethylation activity, T (KDM4D)","KDM5D demethylation activity, T (KDM5D)"
"KKKAAK[Lys(Me3)]AGGTPRKA [Peptide H1.2K26me3, 15-mer linker histone H1.2 residues 20-34 peptide, tri-methylated K26]",● [red],● [red],~51%,● [yellow] (yellow dots indicate moderate demethylation (<50% conversion)),~70%,~30%,~40%,● [green] (green dots indicate good demethylation (>50% conversion)),● [red]
"KKKAA[Lys(Me3)]KAGGTPRKA [Peptide H1.2K25me3, 15-mer linker histone H1.2 residues 20-34 peptide, tri-methylated K25]",● [red],● [red],~45%,● [green] (green dots indicate good demethylation (>50% conversion)),–,–,–,● [red],● [red]
"KKKAR[Lys(Me3)]SAGAAKRKA [Peptide H1.4K25me3, 15-mer linker histone H1.4 residues 20-34 peptide, tri-methylated K25]",● [red],● [red],~87%,● [green] (green dots indicate good demethylation (>50% conversion)),~92%,~30%,~62%,● [green] (green dots indicate good demethylation (>50% conversion)),● [red]
"KKKATK[Lys(Me3)]AAGAGAAK [Peptide H1.5K26me3, 15-mer linker histone H1.5 residues 20-34 peptide, tri-methylated K26]",● [red],● [red],< 10%,● [green] (green dots indicate good demethylation (>50% conversion)),–,–,–,● [green] (green dots indicate good demethylation (>50% conversion)),● [red]
"KKKA[Lys(Me3)]KAGATAGKRK [Peptide H1.3K24me3, 15-mer linker histone H1.3 residues 20-34 peptide, tri-methylated K24]",● [red],● [red],~36%,● [green] (green dots indicate good demethylation (>50% conversion)),~68%,~30%,~40%,● [green] (green dots indicate good demethylation (>50% conversion)),● [red]
